In patent US20130029936A1, “Inclusion Compounds of Fumagillol Derivative or its Salt, and Pharmaceutical Compositions Comprising the Same” (priority 2002, published 2013):
≈ marks a conversion by molar mass, not a printed value. Values belong to the molecule of their own block, whether it stands above or below them.

Assays:
[1] = Solubility in hydroxypropyl-β-cyclodextrin solution (HPLC of filtrate); type: physicochemical; settings: 4° C., 72 hr
Method: (§1) O-(4-dimethylaminoethoxycinnamoyl)fumagillol (30 mg) was added to 1.5, 3.5, 7.0, 14.0, 28.0 w/v % hydroxypropyl-β-cyclodextrin solution, respectively, and stirred at 4° C. After 72 hr, the mixture was filtered with 0.2 μm membrabe filter and O-(4-dimethylaminoethoxycinnamoyl)fumagillol in the filtrate was determined by high pressure liquid chromatography (HPLC). The solubility of O-(4-dimethylamino ethoxycinnamoyl)fumagillol as a function of the hydroxypropyl-β-cyclodextrin concentration was represented in Table 1.
(§2) O-(3,4,5-trimethoxycinnamoyl)fumagillol (20 mg) was added to 1.5, 3.5, 7.0, 14.0, 28.0 w/v % hydroxypropyl-β-cyclodextrin solution, respectively, and stirred at 4° C. After 72 hr, the mixture was filtered with 0.2 μm membrabe filter and O-(3,4,5-trimethoxycinnamoyl)fumagillol in the filtrate was determined by high pressure liquid chromatography (HPLC). The solubility of O-(3,4,5-trimethoxycinnamoyl)fumagillol as a function of the hydroxypropyl-β-cyclodextrin concentration was shown in Table 3.

[2] = Stability of lyophilized powders under storage at 25° C. (residual amount by HPLC); type: physicochemical
Method: The stability of the lyophilized powders obtained in Example 6 was compared with that of O-(4-dimethylaminoethoxycinnamoyl)fumagillol alone under storage at 25° C. The residual amount of O-(4-dimethylaminoethoxycinnamoyl)fumagillol was determined by HPLC.
The stability of the lyophilized powders obtained in Example 7 was compared with that of O-(3,4,5-trimethoxycinnamoyl)fumagillol alone at 25° C. The residual amount of O-(3,4,5-trimethoxycinnamoyl)fumagillol was determined by HPLC.

[3] = Solubility in hydroxypropyl-β-cyclodextrin solution (HPLC of filtrate); type: physicochemical
[4] = Solubility in sulfobutylether-7-β-cyclodextrin solution (HPLC of filtrate); type: physicochemical; settings: 4° C., 72 hr
Method: as §1, with “% sulfobutylether-7-β-cyclodextrin” for “% hydroxypropyl-β-cyclodextrin”, “of O-(4-dimethylaminoethoxycinnamoyl)fumagillol” for “of O-(4-dimethylamino ethoxycinnamoyl)fumagillol”, “the sulfobutylether-7-β-cyclodextrin” for “the hydroxypropyl-β-cyclodextrin”, “Table 2.” for “Table 1.”
as §2, with “% sulfobutylether-7-β-cyclodextrin” for “% hydroxypropyl-β-cyclodextrin”, “the sulfobutyletyher-7-β-cyclodextrin” for “the hydroxypropyl-β-cyclodextrin”, “Table 4.” for “Table 3.”

[5] = system: Lewis lung carcinoma; test: Tumor growth inhibition, subcutaneously implanted Lewis lung carcinoma; type: in vivo; settings: BDF1 mice
Method: Pre-prepared tumor mass (Lewis lung carcinoma) of 8 mm^3 was subcutaneously implanted into the right axillary region of BDF1 mice (4 weeks). When the tumor size was 100-200 mm^3, mice were divided randomly into treatment group and control group. The treatment group was administered subcutaneously with O-(4-ethylaminoethoxycinnamoyl)fumagillol or the complex of O-(4-ethylaminoethoxycinnamoyl)fumagillol with hydroxypropyl-β-cyclodextrin at a dose of 30 mg/kg or 120 mg/kg as O-(4-ethylaminoethoxycinnamoyl)fumagillol every other day for 5 injections, while the control group was given injections of 0.2 ml of phosphate buffered saline. The tumors were weighed on the final day, and tumor volume was calculated using the following equation:
Tumor volume (mm^3)=a×b^2×0.5
(a: the longest diameter, b: the shortest diatheter) Inhibition ratio (IR %) of the treatment group relative to the untreated control group was calculated using the following equation:
=(1−Tumor volume of Treatment group/Tumor volume of Control group)×100
=(1−Tumor weight of Treatment group/Tumor weight of Control group)×100

[6] = Stability (hydrolysis) in acidic, neutral and basic solutions at 50° C. with hydroxypropyl-β-cyclodextrin; type: physicochemical
Method: The stability of O-(4-dimethylaminoethoxycinnamoyl)fumagillol was investigated in the presence of various concentrations of hydroxypropyl-β-cyclodextrin in acidic, neutral and basic solutions at 50° C. The residual amount of O-(4-dimethylaminoethoxycinnamoyl)fumagillol in each solution was determined by HPLC.

[7] = Solubility evaluation with cosolvents and surfactants; type: physicochemical
Source text: However, these formulations have a number of disadvantages, which are the inability to guarantee the long-term stability due to facile hydrolysis in solution state, the inability to be buffered due to increased sensitivity to ions resulting in precipitation and further, the toxicity of the surfactants.

[8] = Solubility in phosphate buffer (pH 6.7) containing hydroxypropyl-β-cyclodextrin; type: physicochemical; settings: 4° C., 72 hr
Method: O-(4-dimethylaminoethoxycinnamoyl)fumagillol (50 mg) was added to phosphate buffer (pH 6.7) containing 1.5, 3.5, 7.0 and 14.0 w/v % hydroxypropyl-β-cyclodextrin, respectively, and stirred at 4° C. After 72 hr, the mixture was filtered with 0.2 μm membrabe filter and O-(4-dimethylaminoethoxycinnamoyl)fumagillol in the filtrate was determined by high pressure liquid chromatography (HPLC). The solubility of O-(4-dimethylaminoethoxycinnamoyl)fumagillol as a function of the hydroxypropyl-β-cyclodextrin concentration was shown in Table 5.

[9] = cited from earlier work
[10] = 1.5 w/v % hydroxypropyl-β-cyclodextrin
[11] = 3.5 w/v % hydroxypropyl-β-cyclodextrin
[12] = 14.0 w/v % hydroxypropyl-β-cyclodextrin
[13] = 28.0 w/v % hydroxypropyl-β-cyclodextrin
[14] = 0 w/v % hydroxypropyl-β-cyclodextrin, 4° C., 72 hr
[15] = 0 w/v % sulfobutylether-7-β-cyclodextrin
[16] = 1.5 w/v % sulfobutylether-7-β-cyclodextrin
[17] = 3.5 w/v % sulfobutylether-7-β-cyclodextrin
[18] = 14.0 w/v % sulfobutylether-7-β-cyclodextrin
[19] = 28.0 w/v % sulfobutylether-7-β-cyclodextrin
[20] = Total Dose 150 mg/kg (30 mg/kg subcutaneously every other day, 5 injections)
[21] = Total Dose 600 mg/kg (120 mg/kg subcutaneously every other day, 5 injections)
[22] = Acidic (pH 3.2), 2 w/v % hydroxypropyl-β-cyclodextrin
[23] = Acidic (pH 3.2), 5 w/v % hydroxypropyl-β-cyclodextrin
[24] = Acidic (pH 3.2), 10 w/v % hydroxypropyl-β-cyclodextrin
[25] = Acidic (pH 3.2), 20 w/v % hydroxypropyl-β-cyclodextrin
[26] = Basic (pH 11.5), 2 w/v % hydroxypropyl-β-cyclodextrin
[27] = Basic (pH 11.5), 5 w/v % hydroxypropyl-β-cyclodextrin
[28] = Basic (pH 11.5), 10 w/v % hydroxypropyl-β-cyclodextrin
[29] = Basic (pH 11.5), 20 w/v % hydroxypropyl-β-cyclodextrin
[30] = Neutral (pH 7.2), 2 w/v % hydroxypropyl-β-cyclodextrin
[31] = Neutral (pH 7.2), 5 w/v % hydroxypropyl-β-cyclodextrin
[32] = Neutral (pH 7.2), 10 w/v % hydroxypropyl-β-cyclodextrin
[33] = Neutral (pH 7.2), 20 w/v % hydroxypropyl-β-cyclodextrin

SMILES: COc1cc(C=CC(=O)OC2CCC3(CO3)C(C3(C)OC3CC=C(C)C)C2OC)cc(OC)c1OC (centres unmarked) [O-(3,4,5-trimethoxycinnamoyl)fumagillol]
Solubility [1, 10]: 430 µg/mL (≈ 0.856 mM)
Solubility [1, 11]: 1520 µg/mL (≈ 3.02 mM)
Solubility ([1]; 7.0 w/v % hydroxypropyl-β-cyclodextrin): 3540 µg/mL (≈ 7.04 mM)
Solubility [1, 12]: 6720 µg/mL (≈ 13.4 mM)
Solubility [1, 13]: 12020 µg/mL (≈ 23.9 mM)
Residual amount of O-(3,4,5-trimethoxycinnamoyl)fumagillol (%) after 1 month ([2]; 25° C., after 1 month): 65.3%
Solubility [3, 14]: 2 µg/mL (≈ 0.00398 mM)
Solubility [4, 15]: 2 µg/mL (≈ 0.00398 mM)
Solubility [4, 16]: 580 µg/mL (≈ 1.15 mM)
Solubility [4, 17]: 1380 µg/mL (≈ 2.75 mM)
Solubility ([4]; 7.0 w/v % sulfobutylether-7-β-cyclodextrin): 2750 µg/mL (≈ 5.47 mM)
Solubility [4, 18]: 5690 µg/mL (≈ 11.3 mM)
Solubility [4, 19]: 11670 µg/mL (≈ 23.2 mM)

Solubility [1, 10]: 1030 µg/mL (≈ 2.06 mM)
Solubility [1, 11]: 2930 µg/mL (≈ 5.86 mM)
Solubility [1, 12]: 11540 µg/mL (≈ 23.1 mM)
Solubility [1, 13]: 22640 µg/mL (≈ 45.3 mM)
Residual amount of O-(4-dimethylaminoethoxycinnamoyl)fumagillol (%) after 1 month ([2]; storage at 25° C., after 1 month): 72.8%
Residual amount of O-(4-dimethylaminoethoxycinnamoyl)fumagillol (%) after 3 month ([2]; storage at 25° C., after 3 month): 54.3%
Solubility [3, 14]: 50 µg/mL (≈ 0.1 mM)
increase of aqueous solubility ([3]; depending the pH and the concentration of hydroxypropyl-β-cyclodextrin or sulfobutylether-7-β-cyclodextrin): 20-1000 fold
Solubility ([3]; in water): 50 µg/mL (≈ 0.1 mM)
kobs (Hydrolysis Rate Constant) ([6]; Acidic (pH 3.2), 0 w/v % hydroxypropyl-β-cyclodextrin): 0.2042 h⁻¹
Inhibition ratio (%) [6, 22]: 52.20%
kobs (Hydrolysis Rate Constant) [6, 22]: 0.0976 h⁻¹
Inhibition ratio (%) [6, 23]: 58.47%
kobs (Hydrolysis Rate Constant) [6, 23]: 0.0848 h⁻¹
Inhibition ratio (%) [6, 24]: 63.08%
kobs (Hydrolysis Rate Constant) [6, 24]: 0.0754 h⁻¹
Inhibition ratio (%) [6, 25]: 67.43%
kobs (Hydrolysis Rate Constant) [6, 25]: 0.0665 h⁻¹
kobs (Hydrolysis Rate Constant) ([6]; Basic (pH 11.5), 0 w/v % hydroxypropyl-β-cyclodextrin): 0.0918 h⁻¹
Inhibition ratio (%) [6, 26]: 5.00%
kobs (Hydrolysis Rate Constant) [6, 26]: 0.0816 h⁻¹
Inhibition ratio (%) [6, 27]: 16.55%
kobs (Hydrolysis Rate Constant) [6, 27]: 0.0580 h⁻¹
Inhibition ratio (%) [6, 28]: 22.77%
kobs (Hydrolysis Rate Constant) [6, 28]: 0.0453 h⁻¹
Inhibition ratio (%) [6, 29]: 30.56%
kobs (Hydrolysis Rate Constant) [6, 29]: 0.0294 h⁻¹
kobs (Hydrolysis Rate Constant) ([6]; Neutral (pH 7.2), 0 w/v % hydroxypropyl-β-cyclodextrin): 0.0162 h⁻¹
Inhibition ratio (%) [6, 30]: 12.96%
kobs (Hydrolysis Rate Constant) [6, 30]: 0.0141 h⁻¹
Inhibition ratio (%) [6, 31]: 15.43%
kobs (Hydrolysis Rate Constant) [6, 31]: 0.0137 h⁻¹
Inhibition ratio (%) [6, 32]: 24.96%
kobs (Hydrolysis Rate Constant) [6, 32]: 0.0122 h⁻¹
Inhibition ratio (%) [6, 33]: 29.01%
kobs (Hydrolysis Rate Constant) [6, 33]: 0.0115 h⁻¹
Solubility [4, 15]: 50 µg/mL (≈ 0.1 mM)
Solubility [4, 16]: 870 µg/mL (≈ 1.74 mM)
Solubility [4, 17]: 2240 µg/mL (≈ 4.48 mM)
Solubility [4, 18]: 10430 µg/mL (≈ 20.9 mM)
Solubility [4, 19]: 21300 µg/mL (≈ 42.6 mM)
Solubility ([7]; aqueous formulation containing 10% Cremophor-EL alone): about 5 mg/ml
Solubility ([7]; aqueous formulation containing a mixture of 10% ethanol and 10% Tween 80): about 5 mg/ml
Solubility ([8]; phosphate buffer pH 6.7, 0 w/v % hydroxypropyl-β-cyclodextrin): 2380 µg/mL (≈ 4.76 mM)
Solubility ([8]; phosphate buffer pH 6.7, 1.5 w/v % hydroxypropyl-β-cyclodextrin): 4240 µg/mL (≈ 8.49 mM)
Solubility ([8]; phosphate buffer pH 6.7, 3.5 w/v % hydroxypropyl-β-cyclodextrin): 9860 µg/mL (≈ 19.7 mM)
Solubility ([8]; phosphate buffer pH 6.7, 7.0 w/v % hydroxypropyl-β-cyclodextrin): 17590 µg/mL (≈ 35.2 mM)
SMILES: CO[C@@H]1[C@H](OC(=O)C=Cc2ccc(OCCN(C)C)cc2)CC[C@]2(CO2)[C@H]1[C@@]1(C)O[C@@H]1CC=C(C)C [O-(4-dimethylaminoethoxycinnamoyl)fumagillol]
Inhibition Ratio (%), Tumor Tissue Volume [5, 20]: 37.7%
Inhibition Ratio (%), Tumor Tissue Weight [5, 20]: 33.6%
Inhibition Ratio (%), Tumor Tissue Volume [5, 21]: 63.3%
Inhibition Ratio (%), Tumor Tissue Weight [5, 21]: 71.4%

SMILES: OC[C@H]1O[C@@H]2O[C@H]3[C@H](O)[C@@H](O)[C@@H](O[C@H]4[C@H](O)[C@@H](O)[C@@H](O[C@H]5[C@H](O)[C@@H](O)[C@@H](O[C@H]6[C@H](O)[C@@H](O)[C@@H](O[C@H]7[C@H](O)[C@@H](O)[C@@H](O[C@H]8[C@H](O)[C@@H](O)[C@@H](O[C@H]1[C@H](O)[C@H]2O)O[C@@H]8CO)O[C@@H]7CO)O[C@@H]6CO)O[C@@H]5CO)O[C@@H]4CO)O[C@@H]3CO [β-cyclodextrin]
aqueous solubility [9]: 1.8 g per 100 ml of water
